Literature values, collected in EP0156318A2, “C-terminal amide cyclic renin inhibitors containing peptide isosteres” (Merck & Co., Inc., priority 1984, dated 1985).
Square brackets hold non-standard residues; d marks the D form. Peptide text beside a SMILES is read from it. * marks the point of attachment. Sta = CC(C)C[C@H](N)[C@@H](O)CC(=O)O; Isovaleryl = CC(C)CC(=O)*

Test system: hog renin
Settings: after the injection of hog renin into nephrectomized rats

CC(C)CC(=O)N[C@H](C(=O)N[C@H](C(=O)N[C@@H](CC(C)C)[C@@H](O)CC(=O)N[C@@H](C)C(=O)N[C@@H](CC(C)C)[C@@H](O)CC(=O)O)C(C)C)C(C)C [pepstatin] (Isovaleryl-VV[Sta]A[Sta]-OH)
blood pressure in vivo: reduce blood pressure
